Data published in ChEMBL document CHEMBL1140020, “Synthesis and biological evaluation of 4'-(6,7-disubstituted-2,4-dihydro-indeno[1,2-c]pyrazol-3-yl)-biphenyl-4-ol as potent Chk1 inhibitors” (Bioorg Med Chem Lett, 2007).
Activity calls are given as the source filed them. The calls are words filed in the database; no cut-off is given here.

Experiments:
[1] = target: T1, Serine/threonine-protein kinase Chk1 (Homo sapiens, UniProt O14757); assay: Inhibition of Chk1
T1 sequence (O14757 whole entry): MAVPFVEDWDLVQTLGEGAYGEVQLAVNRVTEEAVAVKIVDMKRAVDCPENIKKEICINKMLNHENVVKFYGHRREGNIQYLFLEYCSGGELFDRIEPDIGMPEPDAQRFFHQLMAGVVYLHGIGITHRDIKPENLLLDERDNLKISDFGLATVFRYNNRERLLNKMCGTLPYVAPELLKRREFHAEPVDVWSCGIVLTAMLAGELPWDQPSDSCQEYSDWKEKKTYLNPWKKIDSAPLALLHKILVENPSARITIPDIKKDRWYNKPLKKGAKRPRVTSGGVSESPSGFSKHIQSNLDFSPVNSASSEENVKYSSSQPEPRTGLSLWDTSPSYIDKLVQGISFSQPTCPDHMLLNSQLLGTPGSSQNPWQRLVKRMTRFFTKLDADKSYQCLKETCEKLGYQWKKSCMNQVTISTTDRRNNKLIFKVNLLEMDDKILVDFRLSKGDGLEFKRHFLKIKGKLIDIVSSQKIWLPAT

HeLa = assay: Cytotoxicity against HeLa cells by MTS assay; assay type: cell-based; settings: Homo sapiens
[2] = Cell cycle arrest in H1299 cells by accumulation at G2/M phase by FACS analysis; assay type: functional, cell-based; settings: Homo sapiens, NCI-H1299
NCI-H1299 = assay: Inhibition of doxorubicin-induced cell cycle arrest in H1299 cells by accumulation at G2/M phase by FACS analysis; assay type: functional, cell-based; settings: Homo sapiens
SW-620 = assay: Inhibition of camptothecin-induced cell cycle arrest in SW620 cells by accumulation at S phase by FACS analysis; assay type: functional, cell-based; settings: Homo sapiens

SMILES | IC50 [1] | EC50 (HeLa) | further results
COc1cc2c(cc1OCC(C)CN(C)C)-c1n[nH]c(-c3ccc(-c4ccc(O)cc4)cc3)c1C2 (stereo unspecified) | 0.6 nM | 1600 nM | 
COc1cc2c(cc1OCCc1ccccn1)Cc1c-2n[nH]c1-c1ccc(-c2ccc(O)cc2)cc1 | 30 nM | 3400 nM | EC50 [2]: > 10000 nM; EC50 (NCI-H1299): 600 nM
COc1cc2c(cc1OCCN1CCCC1)Cc1c(-c3ccc(-c4ccc(O)cc4)cc3)n[nH]c1-2 | 0.8 nM |  | 
COc1cc2c(cc1OCCCN1CCN(c3cccc(Cl)c3)CC1)-c1n[nH]c(-c3ccc(-c4ccc(O)cc4)cc3)c1C2 | 10 nM |  | 
COc1cc2c(cc1OCc1ccccn1)Cc1c(-c3ccc(-c4ccc(O)cc4)cc3)n[nH]c1-2 | 20 nM |  | 
COc1cc2c(cc1OCCc1cccnc1)Cc1c(-c3ccc(-c4ccc(O)cc4)cc3)n[nH]c1-2 | 13 nM |  | 
COc1cc2c(cc1OC[C@H]1CC=CCC1)Cc1c-2n[nH]c1-c1ccc(-c2ccc(O)cc2)cc1 | 0.7 nM |  | 
COc1cc2c(cc1OCCn1ccnc1)-c1n[nH]c(-c3ccc(-c4ccc(O)cc4)cc3)c1C2 | 3 nM | 1900 nM | 
CCN1CCCC(Oc2cc3c(cc2OC)Cc2c-3n[nH]c2-c2ccc(-c3ccc(O)cc3)cc2)C1 (stereo unspecified) | 0.6 nM |  | 
COc1cc2c(cc1OCCCN1CCN(c3cccc(Cl)c3)CC1)Cc1c-2n[nH]c1-c1ccc(-c2ccc(O)cc2)cc1 | 8 nM |  | 
COc1cc2c(cc1OC[C@H](O)CO)Cc1c-2n[nH]c1-c1ccc(-c2ccc(O)cc2)cc1 | 0.1 nM | 7700 nM | EC50 [2]: > 50000 nM; EC50 (NCI-H1299): 200 nM
COc1cc2c(cc1OCc1ccccn1)-c1n[nH]c(-c3ccc(-c4ccc(O)cc4)cc3)c1C2 | 24 nM | > 59300 nM | EC50 [2]: > 50000 nM; EC50 (NCI-H1299): 800 nM
CCc1ccc(CCOc2cc3c(cc2OC)-c2n[nH]c(-c4ccc(-c5ccc(O)cc5)cc4)c2C3)nc1 | 23 nM | 29400 nM | EC50 [2]: > 10000 nM; EC50 (NCI-H1299): 500 nM
COc1cc2c(cc1OC1CCOC1)Cc1c-2n[nH]c1-c1ccc(-c2ccc(O)cc2)cc1 (stereo unspecified) | 0.4 nM | 49000 nM | 
COc1cc2c(cc1OCCCN1CCCCC1)Cc1c-2n[nH]c1-c1ccc(-c2ccc(O)cc2)cc1 | 4 nM | 2300 nM | EC50 [2]: > 10000 nM; EC50 (NCI-H1299): 400 nM
COc1cc2c(cc1OC(CO)CO)Cc1c-2n[nH]c1-c1ccc(-c2ccc(O)cc2)cc1 | < 0.1 nM |  | 
COc1cc2c(cc1OC(F)(F)F)-c1[nH]nc(-c3ccc(-c4ccc(O)cc4)cc3)c1C2 | 290 nM |  | 
COc1cc2c(cc1OCCCN(C)C)Cc1c-2n[nH]c1-c1ccc(-c2ccc(O)cc2)cc1 | 0.7 nM | 800 nM | 
COc1cc2c(cc1OCC[C@@H]1CCCN1)Cc1c(-c3ccc(-c4ccc(O)cc4)cc3)n[nH]c1-2 | 2 nM |  | 
COc1cc2c(cc1OC[C@@H](O)CO)Cc1c-2n[nH]c1-c1ccc(-c2ccc(O)cc2)cc1 | 0.1 nM | 3500 nM | 
COc1cc2c(cc1OCCN1CCCCC1)Cc1c-2n[nH]c1-c1ccc(-c2ccc(O)cc2)cc1 | 1 nM |  | 
COc1cc2c(cc1OCC1CCOC1)Cc1c-2n[nH]c1-c1ccc(-c2ccc(O)cc2)cc1 (stereo unspecified) | 0.8 nM |  | 
COc1cc2c(cc1OCc1cccnc1)-c1n[nH]c(-c3ccc(-c4ccc(O)cc4)cc3)c1C2 | 23 nM | 35200 nM | EC50 [2]: > 50000 nM; EC50 (NCI-H1299): 300 nM
COc1cc2c(cc1OC)-c1n[nH]c(-c3ccc(-c4ccc(O)cc4)cc3)c1C2 |  | > 59300 nM | EC50 [2]: > 50000 nM; EC50 (NCI-H1299): 200 nM; Activity (SW-620): Active
COc1cc2c(cc1OCCN1CCCC1)-c1[nH]nc(-c3ccc(-c4ccc(O)cc4)cc3)c1C2 | 2 nM |  | 

SMILES | IC50 [1] | EC50 (HeLa) | further results
COc1cc2c(cc1OCCN1CCOCC1)Cc1c(-c3ccc(-c4ccc(O)cc4)cc3)n[nH]c1-2 | 2 nM |  | 
COc1cc2c(cc1OCCCN1CCN(c3ccccc3OC)CC1)Cc1c(-c3ccc(-c4ccc(O)cc4)cc3)n[nH]c1-2 | 25 nM |  | 
COc1cc2c(cc1OC(=O)NCc1ccccn1)-c1[nH]nc(-c3ccc(-c4ccc(O)cc4)cc3)c1C2 | 48 nM |  | 
COc1cc2c(cc1OCCN1CCOCC1)-c1n[nH]c(-c3ccc(-c4ccc(O)cc4)cc3)c1C2 | 5 nM |  | 
COc1cc2c(cc1OC(=O)NCCN1CCOCC1)-c1[nH]nc(-c3ccc(-c4ccc(O)cc4)cc3)c1C2 | 74 nM |  | 
COc1cc2c(cc1OCCN(C)C)-c1[nH]nc(-c3ccc(-c4ccc(O)cc4)cc3)c1C2 | 0.8 nM |  | 
COc1cc2c(cc1CCOCCCc1cccc(C)n1)Cc1c-2n[nH]c1-c1ccc(-c2ccc(O)cc2)cc1 | 62 nM | 4100 nM | EC50 [2]: > 10000 nM; EC50 (NCI-H1299): 400 nM
COc1cc2c(cc1OCCc1ccncc1)Cc1c-2n[nH]c1-c1ccc(-c2ccc(O)cc2)cc1 | 5 nM |  | 
COc1cc2c(cc1OCc1ccncc1)Cc1c-2n[nH]c1-c1ccc(-c2ccc(O)cc2)cc1 | 8 nM | 3200 nM | 
COc1cc2c(cc1OC(=O)NCCN(C)C)-c1[nH]nc(-c3ccc(-c4ccc(O)cc4)cc3)c1C2 | 40 nM |  | 
COc1cc2c(cc1OC(C)CN(C)C)Cc1c-2n[nH]c1-c1ccc(-c2ccc(O)cc2)cc1 (stereo unspecified) | 2 nM |  | 
COc1cc2c(cc1OCCCN1CCOCC1)Cc1c-2n[nH]c1-c1ccc(-c2ccc(O)cc2)cc1 | 6 nM | 4300 nM | 
COc1cc2c(cc1OC(C)CN(C)C)-c1n[nH]c(-c3ccc(-c4ccc(O)cc4)cc3)c1C2 (stereo unspecified) | 2 nM |  | 
COc1cc2c(cc1OC1CCOCC1)Cc1c(-c3ccc(-c4ccc(O)cc4)cc3)n[nH]c1-2 | 0.2 nM |  | 
COc1cc2c(cc1OCCN(C)C)Cc1c-2n[nH]c1-c1ccc(-c2ccc(O)cc2)cc1 | 2 nM |  | 
CCN(CC)CC(CN(CC)CC)Oc1cc2c(cc1OC)Cc1c(-c3ccc(-c4ccc(O)cc4)cc3)n[nH]c1-2 | 2 nM |  | 
COc1cc2c(cc1OCCCN1CCN(C)CC1)-c1n[nH]c(-c3ccc(-c4ccc(O)cc4)cc3)c1C2 | 0.2 nM |  | 
COc1cc2c(cc1O)Cc1c(-c3ccc(-c4ccc(O)cc4)cc3)n[nH]c1-2 | 1 nM |  | 
COc1cc2c(cc1OC(=O)NCCN1CCCC1)-c1[nH]nc(-c3ccc(-c4ccc(O)cc4)cc3)c1C2 | 21 nM |  | 
COc1cc2c(cc1OCc1cccnc1)Cc1c-2n[nH]c1-c1ccc(-c2ccc(O)cc2)cc1 | 18 nM | > 59300 nM | 
COc1cc2c(cc1OCCC1CCCN1C)-c1[nH]nc(-c3ccc(-c4ccc(O)cc4)cc3)c1C2 (stereo unspecified) | 0.8 nM |  | 
COc1cc2c(cc1OCCn1ccnc1)Cc1c-2n[nH]c1-c1ccc(-c2ccc(O)cc2)cc1 | 5 nM |  | 
COc1cc2c(cc1O)-c1[nH]nc(-c3ccc(-c4ccc(O)cc4)cc3)c1C2 | 5 nM |  | 
COc1cc2c(cc1OCc1ccncc1)-c1[nH]nc(-c3ccc(-c4ccc(O)cc4)cc3)c1C2 | 36 nM |  | 
